{
  "source": "ChEMBL document CHEMBL1147381",
  "about": "“Two new cytotoxic chalcones from Calythropsis aurea” (J Nat Prod, 1993)",
  "key": {"L1210": {"system": "L1210", "experiment": "Cytotoxicity against mouse L1210 cells after 24 hrs", "assay_type": "functional, cell-based", "conditions": "L1210, 24 h"}, "[1]": {"experiment": "Cytotoxicity against human NCI60 cells after 2 days by XTT assay", "assay_type": "functional", "conditions": "NCI60, 48 h"}},
  "data": [
    {"smiles": "COc1ccc(C(=O)/C=C/c2ccc(O)c(O)c2)c(O)c1", "note": "[CALYTHROPSIN]", "values": [
      {"measurement": "IC50", "setting": "L1210", "result": 7, "unit": "µM"},
      {"measurement": "GI50", "setting": "[1]", "result": 0.66, "unit": "µM"},
      {"measurement": "TGI", "setting": "[1]", "result": 19.7, "unit": "µM"},
      {"measurement": "CC50", "setting": "[1]; read-out: LC50 (the source's name)", "result": "> 50", "unit": "µM"}
    ]}
  ]
}
